Experimental data as given in patent US11339148B2, “Crystalline forms of the CXCR7 receptor antagonist (3S,4S)-1-Cyclopropylmethyl-4-{[5-(2,4-difluoro-phenyl)-isoxazole-3-carbonyl]-amino}-piperidine-3-carboxylic acid (1-pyrimidin-2-yl-cyclopropyl)-amide” (IDORSIA PHARMACEUTICALS LTD., priority 2018, dated 2022).

Test: Gravimetric vapour sorption (GVS) / moisture sorption
Format: physicochemical
Details: at 95% RH; 25° C.
Protocol: Gravimetric Vapour Sorption (GVS) Analysis
Measurements are performed on a multi sample instrument SPS-100n (Projekt Messtechnik, Ulm, Germany) operated in stepping mode at 25° C.

O=C(N[C@H]1CCN(CC2CC2)C[C@@H]1C(=O)NC1(c2ncccn2)CC1)c1cc(-c2ccc(F)cc2F)on1 [Example 2, (3S,4S)-1-Cyclopropylmethyl-4-{[5-(2,4-difluoro-phenyl)-isoxazole-3-carbonyl]-amino}-piperidine-3-carboxylic acid (1-pyrimidin-2-yl-cyclopropyl)-amide in Crystalline Form 2]
Moisture sorption: Sorption of 6.9% at 95% RH
